Source: US12264156B2, “Compounds and pharmaceutical compositions thereof for the treatment of diseases” (GALAPAGOS NV, priority 2018, dated 2025)
Read-outs that look alike come from different tables or passages of the source.

Assays:
[1] = test system: LPS-induced TNFα in monocyte-derived macrophages (MdM); test: MdM assay: LPS-triggered TNFα (ELISA); assay type: cell-based, human
Method in brief: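 Compound added 1 h before LPS (200 ng/mL final) to day-10 macrophages derived from magnetically isolated CD14+ human blood monocytes, DMSO held at 0.2%. TNFα secreted over 20 h of stimulation quantified by ELISA against a standard curve.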

[2] = test system: LPS-induced TNFα in monocytes; test: Monocytes assay: LPS-triggered TNFα (ELISA); assay type: cell-based, human; settings: LPS 200 ng/mL, supernatant after 4 h
Method in brief: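 Supernatant TNFα was quantified by luminol-based sandwich ELISA after 4 h stimulation with LPS (200 ng/mL final). The cells were CD14-bead-purified monocytes from human PBMCs, 100 000 per well, exposed to 3-fold compound dilutions for 1 h at 37° C beforehand, with DMSO at 0.2%. Results are reported as percent inhibition.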

[3] = Homo sapiens, Macrophage, 20 h, monocyte-derived macrophages, LPS 200 ng/mL, supernatant after 20 h, read-out: TNFα EC50
[4] = monocyte-derived macrophages, LPS 200 ng/mL, supernatant after 20 h, read-out: TNFα EC50
[5] = Homo sapiens, Macrophage, 20 h, read-out: TNFα EC50 (nM)

Compound | EC50 [1, 3] [nM] | EC50 ([2]; Homo sapiens, Monocyte, 4 h) [nM] | other results
COc1cc(-c2cnc3cc(OCCCN4CCNCC4)ccn23)cc(OC(F)F)c1C(=O)NC1CC1 [compound 278, N-cyclopropyl-2-(difluoromethoxy)-6-methoxy-4-[7-(3-piperazin-1-ylpropoxy)imidazo[1,2-a]pyridin-3-yl]benzamide] | 1000 to 5000 | 100 to 1000 | 
COc1cc(-c2cnc3cc(OCC(O)CN4CCOCC4)ccn23)cc(OC(F)F)c1C(=O)NC1CC1 (single isomer, unassigned) [Cpd 387, N-cyclopropyl-2-(difluoromethoxy)-4-[7-(2-hydroxy-3-morpholino-propoxy)imidazo[1,2-a]pyridin-3-yl]-6-methoxy-benzamide] |  |  | EC50 [1, 4]: 0.1 to 100 nM; EC50 [2]: 0.1 to 100 nM
COc1cc(-c2cnc3cc(OCCN4C5CCC4COC5)ccn23)cc(OC(F)F)c1C(=O)NC1CC1 [compound 193, N-cyclopropyl-2-(difluoromethoxy)-6-methoxy-4-[7-[2-(3-oxa-8-azabicyclo [3.2.1]octan-8-yl)ethoxy]imidazo[1,2-a]pyridin-3-yl]benzamide] |  |  | EC50 [1, 5]: 100 to 1000 nM; EC50 ([2]; Homo sapiens, Monocyte): 0.1 to 100 nM
COc1cc(-c2cnc3cc(OCCN4CCOCC4)ccn23)cc2c1C(=O)N(CC(F)F)CC2 [compound 218, 2-(2,2-difluoroethyl)-8-methoxy-6-[7-(2-morpholinoethoxy)imidazo [1,2-a]pyridin-3-yl]-3,4-dihydroisoquinolin-1-one] | 100 to 1000 | 100 to 1000 | 
COc1cc(-c2cnc3cc(OCCCN4CCC5(CC4)CNC(=O)O5)ccn23)cc(OC(F)F)c1C(=O)NC1CC1 [Cpd 324, N-cyclopropyl-2-(difluoromethoxy)-6-methoxy-4-[7-[3-(2-oxo-1-oxa-3,8-diazaspiro[4.5]decan-8-yl)propoxy]imidazo[1,2-a]pyridin-3-yl]benzamide] | 100 to 1000 | 100 to 1000 | 
COc1cc(-c2cnc3cc(OC[C@H]4COCCO4)ccn23)cc2c1C(=O)N(CC(F)F)CC2 [compound 219, 2-(2,2-difluoroethyl)-6-[7-[[(2R)-1,4-dioxan-2-yl]methoxy]imidazo[1,2-a]pyridin-3-yl]-8-methoxy-3,4-dihydroisoquinolin-1-one] | 1000 to 5000 | 100 to 1000 | 
COc1cc(-c2cnc3cc(OCCCN4CC(O)C4)ccn23)cc(OC(F)F)c1C(=O)NC1CC1 [Cpd 286, N-cyclopropyl-2-(difluoromethoxy)-4-[7-[3-(3-hydroxyazetidin-1-yl)propoxy]imidazo[1,2-a]pyridin-3-yl]-6-methoxy-benzamide] | 1000 to 5000 | 100 to 1000 | 
COc1cc(-c2cnc3cc(OCCN4CCOCC4)ccn23)cc2c1C(=O)N(CC(F)(F)F)CC2 [Cpd 88, 8-methoxy-6-[7-(2-morpholinoethoxy)imidazo [1,2-a]pyridin-3-yl]-2-(2,2,2-trifluoroethyl)-3,4-dihydroisoquinolin-1-one] |  |  | EC50 [1, 5]: 100 to 1000 nM; EC50 ([2]; Homo sapiens, Monocyte): 100 to 1000 nM
COc1cc(-c2cnc3cc(OCC(O)CN4CCOCC4)ccn23)cc(OC(F)F)c1C(=O)NC1CC1 (single isomer, unassigned) [Cpd 386, N-cyclopropyl-2-(difluoromethoxy)-4-[7-(2-hydroxy-3-morpholino-propoxy)imidazo[1,2-a]pyridin-3-yl]-6-methoxy-benzamide] |  |  | EC50 [1, 4]: 100 to 1000 nM; EC50 [2]: 100 to 1000 nM
COc1cc(-c2cnc3cc(OCc4nncn4C)ccn23)cc(OC(F)F)c1C(=O)NC1CC1 [compound 227, N-cyclopropyl-2-(difluoromethoxy)-6-methoxy-4-[7-[(4-methyl-1,2,4-triazol-3-yl)methoxy]imidazo[1,2-a]pyridin-3-yl]benzamide] | > 5000 | 1000 to 5000 | 
COc1cc(-c2cnc3cc(OCCN4CCN(C)CC4)ccn23)cc(OC(F)F)c1C(=O)NC1CC1 [compound 9, N-cyclopropyl-2-(difluoromethoxy)-6-methoxy-4-[7-[2-(4-methylpiperazin-1-yl)ethoxy]imidazo[1,2-a]pyridin-3-yl]benzamide] | 100 to 1000 | 0.1 to 100 | 
COc1cc(-c2cnc3cc(OC(C)(C)CO)ccn23)cc(OC(F)F)c1C(=O)NC1CC1 [Cpd 209, N-cyclopropyl-2-(difluoromethoxy)-4-[7-(2-hydroxy-1,1-dimethyl-ethoxy)imidazo[1,2-a]pyridin-3-yl]-6-methoxy-benzamide] | 1000 to 5000 | 100 to 1000 | 
COc1cc(-c2cnc3cc(OCCN4CCN(C(C)C)CC4)ccn23)cc(OC(F)F)c1C(=O)NC1CC1 [compound 276, N-cyclopropyl-2-(difluoromethoxy)-4-[7-[2-(4-isopropylpiperazin-1-yl)ethoxy]imidazo[1,2-a]pyridin-3-yl]-6-methoxy-benzamide] | 100 to 1000 | 100 to 1000 | 

Further lines, with some results ahead:

EC50 [1, 3] [nM] | EC50 ([2]; Homo sapiens, Monocyte, 4 h) [nM] | Compound | other results
100 to 1000 | 100 to 1000 | COc1cc(-c2cnc3cc(OCCN4CC(F)(F)C4)ccn23)cc2c1C(=O)N(CC(F)(F)F)CC2 [Cpd 244, 6-[7-[2-(3,3-difluoroazetidin-1-yl)ethoxy]imidazo[1,2-a]pyridin-3-yl]-8-methoxy-2-(2,2,2-trifluoroethyl)-3,4-dihydroisoquinolin-1-one] | 
100 to 1000 | 100 to 1000 | COc1cc(-c2cnc3cc(OCCCN4CCCC4)ccn23)cc(OC(F)F)c1C(=O)NC1CC1 [compound 275, N-cyclopropyl-2-(difluoromethoxy)-6-methoxy-4-[7-(3-pyrrolidin-1-ylpropoxy)imidazo[1,2-a]pyridin-3-yl]benzamide] | 
100 to 1000 | 0.1 to 100 | COc1cc(-c2cnc3cc(OCCOCCN4CCCCC4)ccn23)cc(OC(F)F)c1C(=O)NC1CC1 [compound 305] | 
100 to 1000 | 100 to 1000 | COc1cc(-c2cnc3cc(OCC4(F)CN(C(=O)OC(C)(C)C)C4)ccn23)cc2c1C(=O)N(CC(F)(F)F)CC2 [compound 248, tert-butyl 3-fluoro-3-[[3-[8-methoxy-1-oxo-2-(2,2,2-trifluoroethyl)-3,4-dihydroisoquinolin-6-yl]imidazo[1,2-a]pyridin-7-yl]oxymethyl]azetidine-1-carboxylate] | 
100 to 1000 | 100 to 1000 | COc1cc(-c2cnc3cc(OCCN4CCOC[C@@H]4C)ccn23)cc(OC(F)F)c1C(=O)NC1CC1 [compound 233, N-cyclopropyl-2-(difluoromethoxy)-6-methoxy-4-[7-[2-[(3S)-3-methylmorpholin-4-yl]ethoxy]imidazo[1,2-a]pyridin-3-yl]benzamide] | 
0.1 to 100 | 100 to 1000 | COc1cc(-c2cnc3cc(OCCCN4CCCC(O)C4)ccn23)cc(OC(F)F)c1C(=O)NC1CC1 (stereo not shown) [compound 328, N-cyclopropyl-2-(difluoromethoxy)-4-[7-[3-(3-hydroxy-1-piperidyl)propoxy]imidazo [1,2-a]pyridin-3-yl]-6-methoxy-benzamide] | 
100 to 1000 | 0.1 to 100 | COc1cc(-c2cnc3cc(OCCCN4CCS(=O)(=O)CC4)ccn23)cc(OC(F)F)c1C(=O)NC1CC1 [Cpd 331, N-cyclopropyl-2-(difluoromethoxy)-4-[7-[3-(1,1-dioxo-1,4-thiazinan-4-yl)propoxy]imidazo[1,2-a]pyridin-3-yl]-6-methoxy-benzamide] | 
0.1 to 100 | 0.1 to 100 | CCOC(=O)C1(F)CCN(CC(O)COc2ccn3c(-c4cc(OC)c(C(=O)NC5CC5)c(OC(F)F)c4)cnc3c2)CC1 (stereo not shown) [compound 384, ethyl 1-[3-[3-[4-(cyclopropylcarbamoyl)-3-(difluoromethoxy)-5-methoxy-phenyl]imidazo[1,2-a]pyridin-7-yl]oxy-2-hydroxy-propyl]-4-fluoro-piperidine-4-carboxylate] | 
100 to 1000 | 100 to 1000 | COc1cc(-c2cnc3cc(OCCN4CCOC[C@H]4C)ccn23)cc(OC(F)F)c1C(=O)NC1CC1 [compound 234, N-cyclopropyl-2-(difluoromethoxy)-6-methoxy-4-[7-[2-[(3R)-3-methylmorpholin-4-yl]ethoxy]imidazo[1,2-a]pyridin-3-yl]benzamide] | 
0.1 to 100 | 0.1 to 100 | CCOC(=O)C1(F)CCN(CCOc2ccn3c(-c4cc(OC)c(C(=O)NC5CC5)c(OC(F)F)c4)cnc3c2)CC1 [compound 390, ethyl 1-[2-[3-[4-(cyclopropylcarbamoyl)-3-(difluoromethoxy)-5-methoxy-phenyl]imidazo[1,2-a]pyridin-7-yl]oxyethyl]-4-fluoro-piperidine-4-carboxylate] | 
0.1 to 100 | 0.1 to 100 | COc1cc(-c2cnc3cc(OCCCN4CCC5(CC4)CN(C)C(=O)O5)ccn23)cc(OC(F)F)c1C(=O)NC1CC1 [compound 325, N-cyclopropyl-2-(difluoromethoxy)-6-methoxy-4-[7-[3-(3-methyl-2-oxo-1-oxa-3,8-diazaspiro[4.5]decan-8-yl)propoxy]imidazo[1,2-a]pyridin-3-yl]benzamide] | 
0.1 to 100 | 0.1 to 100 | COc1cc(-c2cnc3cc(OCC(O)CN4CCCCC4)ccn23)cc(OC(F)F)c1C(=O)NC1CC1 (stereo not shown) [Cpd 321, N-cyclopropyl-2-(difluoromethoxy)-4-[7-[2-hydroxy-3-(1-piperidyl)propoxy]imidazo [1,2-a]pyridin-3-yl]-6-methoxy-benzamide] | 
0.1 to 100 | 0.1 to 100 | CCOC(=O)C1(F)CCN(CCCOc2ccn3c(-c4cc(OC)c(C(=O)NC5CC5)c(OC(F)F)c4)cnc3c2)CC1 [Cpd 363, ethyl 1-[3-[3-[4-(cyclopropylcarbamoyl)-3-(difluoromethoxy)-5-methoxy-phenyl]imidazo[1,2-a]pyridin-7-yl]oxypropyl]-4-fluoro-piperidine-4-carboxylate] | 
